Data reported in patent publication US6093723A, “4-substituted beta-carbolines and analogs thereof” (Boehringer Ingelheim Pharmaceuticals, Inc., priority 1997, dated 2000).

Tests used:
[1] = tested on: Ca^+2 influx in Jurkat cells (clone E6-1); assay: Calcium influx assay (thapsigargin-stimulated, Fluo-3); assay type: cell-based; details: Homo sapiens; Jurkat cells clone E6-1, thapsigargin 100 nM, 10 min preincubation
Description: Jurkat cells (clone E6-1) are pelleted by centrifugation, washed twice, and resuspended in RPMI 1640 containing, […], 1 % fetal calf serum, 3 μM Fluo-3-AM, 13.5 μl/ml Pluronic F 127 (Molecular Probes) and incubated for 1 hour at 37° C. The loaded cells are washed twice in Hanks Balanced Salt Solution containing 10 mM HEPES. The cells are resuspended in HBSS containing 10 mM HEPES, and dispensed into 96-well Dynatech black microtiter plates at 2×10^5 cells/well. The cells are preincubated with compounds for 10 minutes at room temperature. Baseline fluorescence of unstimulated cells is measured using an SLT fluorescent microtiter plate reader with an excitation wavelength of 495 nm and emission wavelength of 538 nm. Thapsigargin is then added to a final concentration of 100 nM. Following a 5 minute incubation, fluorescence of thapsigargin treated cells is measured. Delta fluorescence values are determined by subtracting baseline fluorescence values from thapsigargin induced fluorescence values.

[2] = tested on: IL-2 production in T lymphocytes (CD3+/CD4+ cells); assay: IL-2 production assay, Protocol B (antiCD3/antiCD28 as stimuli); assay type: cell-based; details: T-lymphocyte; human T lymphocytes, anti-CD3/anti-CD28 and goat anti-mouse coated beads, 16 hour
Description: Protocol B (antiCD3/antiCD28 as stimuli)
Human peripheral blood is obtained from healthy donors by venipuncture and the mononuclear cell fraction is prepared by centrifugation on Ficoll Hypaque (Phamacia) density gradients. Contaminating red blood cells are lysed and the CD3+/CD4+ cells are purified using immunoaffinity columns (R&D Systems or CellPro). The T lymphocytes are plated at 1-1.5×10^5 cells/well in a 96 well microtiter plate, and incubated with serial dilutions of compounds for 20 minutes at 37° C. The T cells are activated by the addition of 0.6 ng/ml anti-CD3 (Immunotech), 500 ng/ml anti-CD28 (Biodesign) and 2×10^5 goat anti-mouse coated beads (Dynal). The final volume of the assay is 200 μl. Following a 16 hour incubation at 37° C., the cells are pelleted, and the supernatants are removed and collected and stored at -70° C. until assayed for interleukin-2 using a commercial ELISA kit (R&D Systems).

Structure (SMILES)	IC50 [1]	IC50 [2]
Cn1c2ccccc2c2c(-c3ccc(C(F)(F)F)cc3)cncc21 [Compound 26]	2500 nM	> 25 µM
c1ccc2c(c1)[nH]c1cncc(C3CCCCC3)c12 [Compound 38]	2200 nM	> 25 µM
Cc1ccnc(-c2cncc3[nH]c4ccccc4c23)c1 [Compound 40]	14400 nM	> 25 µM
Clc1ccc(-c2cncc3[nH]c4ccccc4c23)cc1Cl [Compound 32]	1500 nM	8.9 µM
Cc1ccc(-c2cncc3[nH]c4cc(CO)ccc4c23)cc1 [Compound 34]	2400 nM	7.7 µM
c1ccc(Cc2cncc3[nH]c4ccccc4c23)cc1 [Compound 37]	2200 nM	> 25 µM
OCc1ccc(-c2cncc3[nH]c4ccccc4c23)cc1 [Compound 23]	15200 nM	
COc1ccc(-c2cncc3[nH]c4ccccc4c23)cc1OC [Compound 29]	2700 nM	1.6 µM
COc1cc(-c2cncc3[nH]c4ccccc4c23)cc(OC)c1OC [Compound 31]	3300 nM	2.8 µM
Oc1ccc(-c2cncc3[nH]c4ccccc4c23)cc1 [Compound 21]	2900 nM	
COc1ccc2c(c1)[nH]c1cncc(-c3ccc(C)cc3)c12 [Compound 22]	1700 nM	5.8 µM
Cc1ccc(-c2cncc3[nH]c4ccc(C)cc4c23)cc1 [Compound 16]	4500 nM	> 25 µM
Cc1noc(-c2cncc3[nH]c4ccccc4c23)n1 [Compound 43]	> 45000 nM	> 25 µM
Cc1cnc(-c2cncc3[nH]c4ccccc4c23)s1 [Compound 41]	17700 nM	> 25 µM
O=C(c1ccccc1)c1ccc(-c2cncc3[nH]c4ccccc4c23)cc1 [Compound 25]	7700 nM	
CCOC(=O)c1ccc(-c2cncc3[nH]c4ccccc4c23)cc1 [Compound 19]	3400 nM	6.3 µM
c1ccc2cc(-c3cncc4[nH]c5ccccc5c34)ccc2c1 [Compound 42]	1300 nM	2.5 µM
COC(=O)c1cccc2c1[nH]c1cncc(-c3ccc(C)cc3)c12 [Compound 36]	3300 nM	17 µM
Cc1ccc(-c2cncc3[nH]c4ccccc4c23)c(C)c1 [Compound 30]	1700 nM	5.9 µM
CN(C)c1ccc(-c2cncc3[nH]c4ccccc4c23)cc1 [Compound 24]	1600 nM	0.17 µM

More lines, now with the values ahead:

IC50 [1]	IC50 [2]	Structure (SMILES)
1000 nM	5.3 µM	COc1ccc(-c2cncc3[nH]c4ccccc4c23)cc1C [Compound 33]
700 nM	5.4 µM	Cc1ccc(-c2cncc3[nH]c4c(C)cccc4c23)cc1 [Compound 18]
400 nM	4.2 µM	Cc1ccc(-c2cncc3[nH]c4cc(C)ccc4c23)cc1 [Compound 17]
700 nM		COC(=O)c1ccc2c(c1)[nH]c1cncc(-c3ccc(C)cc3)c12 [Compound 35]
300 nM	1.1 µM	CC(C)c1ccc(-c2cncc3[nH]c4ccccc4c23)cc1 [Compound 20]
700 nM	9.5 µM	Cc1ccc(-c2cncc3[nH]c4ccccc4c23)s1 [Compound 39]
1300 nM	5.6 µM	COc1ccc(-c2cncc3[nH]c4ccccc4c23)c(OC)c1 [Compound 27]
1300 nM	< 10 µM	CC(C)c1noc(-c2cncc3[nH]c4ccccc4c23)n1 [Compound 44]
900 nM	9 µM	Cc1ccc(-c2cncc3[nH]c4cccc(C)c4c23)cc1 [Compound 15]
700 nM	4.8 µM	COc1cc(OC)cc(-c2cncc3[nH]c4ccccc4c23)c1 [Compound 28]
